Consider 19 compounds from patent publication US10988477B2 (Merck Patent GmbH, priority 2018, dated 2021).

What is called pIC50 is the IC50 on a negative log10 scale, so that one unit is a factor of ten. As a reminder, the pKi is −log10 of the Ki, conventionally taken in molar units. A lower pKi goes with a large Ki.

Test [1] deals with intracellular GCN2 (phosphorylation of the GCN2 substrate eIF2α) (Homo sapiens, UniProt Q9P2K8). Briefly: GCN2 cellular inhibition assay (AlphaScreen SureFire P-eIF2α Ser51, borrelidin-treated U2OS cells). The format is cell-based. The essentials:
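Borrelidin at 10 μM is added to U2OS cells immediately after compound (4-fold dilution series, 40 μM top final) for 1 h at 37 °C. Phosphorylated eIF2α Ser51 in lysates is quantified by AlphaScreen and expressed as percent inhibition against borrelidin-stimulated controls.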
(In general: Alpha assays give light when donor and acceptor beads are brought close together.)

A further test has as its target GCN2 kinase (Homo sapiens, UniProt Q9P2K8). Briefly: GCN2 enzyme inhibition assay (Transcreener ADP2 fluorescence polarization). Format: biochemical. The conditions noted are these: 280 μM ATP. The gist of the method: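 FP detection of ADP (antibody plus Alexa633 tracer) after a 1 h, 25 °C kinase reaction. Enzyme 4 nM, ATP 280 μM, (RS)7 peptide 200 μM, Tris pH 7.5 buffer with MgCl2 and DTT. Percent inhibition fitted by non-linear tight-binding algorithm for IC50 and Ki(app).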
On the technique in general: Fluorescence polarisation rises when a labelled molecule tumbles more slowly, as on binding a larger partner.

Setting [2] is: compounds of Formula IV, biomarker assay, phosphorylated eIF2α Ser51 in borrelidin-treated U2OS cells.
[3] abbreviates: Enzyme activity for compounds of Formula IV, Ki(app), 25° C.
The mark [4] stands for this setting: compounds of Formula V, U2OS cells, 10 μM borrelidin, 1 h, read-out: GCN2 Biomarker (IC50).
Setting [5] is: compounds of Formula V, 4 nM GCN2 kinase.
[6] abbreviates: compounds of Formula II, biomarker assay, phosphorylated eIF2α Ser51 in borrelidin-treated U2OS cells.
The mark [7] stands for this setting: compounds of Formula II, 4 nM GCN2 kinase.

The structures appear in SMILES notation. pIC50, pKi: −log10 of the molar value. Where two headings read alike, the source gives them in different places.

Chain of GCN2 kinase (Q9P2K8 whole entry): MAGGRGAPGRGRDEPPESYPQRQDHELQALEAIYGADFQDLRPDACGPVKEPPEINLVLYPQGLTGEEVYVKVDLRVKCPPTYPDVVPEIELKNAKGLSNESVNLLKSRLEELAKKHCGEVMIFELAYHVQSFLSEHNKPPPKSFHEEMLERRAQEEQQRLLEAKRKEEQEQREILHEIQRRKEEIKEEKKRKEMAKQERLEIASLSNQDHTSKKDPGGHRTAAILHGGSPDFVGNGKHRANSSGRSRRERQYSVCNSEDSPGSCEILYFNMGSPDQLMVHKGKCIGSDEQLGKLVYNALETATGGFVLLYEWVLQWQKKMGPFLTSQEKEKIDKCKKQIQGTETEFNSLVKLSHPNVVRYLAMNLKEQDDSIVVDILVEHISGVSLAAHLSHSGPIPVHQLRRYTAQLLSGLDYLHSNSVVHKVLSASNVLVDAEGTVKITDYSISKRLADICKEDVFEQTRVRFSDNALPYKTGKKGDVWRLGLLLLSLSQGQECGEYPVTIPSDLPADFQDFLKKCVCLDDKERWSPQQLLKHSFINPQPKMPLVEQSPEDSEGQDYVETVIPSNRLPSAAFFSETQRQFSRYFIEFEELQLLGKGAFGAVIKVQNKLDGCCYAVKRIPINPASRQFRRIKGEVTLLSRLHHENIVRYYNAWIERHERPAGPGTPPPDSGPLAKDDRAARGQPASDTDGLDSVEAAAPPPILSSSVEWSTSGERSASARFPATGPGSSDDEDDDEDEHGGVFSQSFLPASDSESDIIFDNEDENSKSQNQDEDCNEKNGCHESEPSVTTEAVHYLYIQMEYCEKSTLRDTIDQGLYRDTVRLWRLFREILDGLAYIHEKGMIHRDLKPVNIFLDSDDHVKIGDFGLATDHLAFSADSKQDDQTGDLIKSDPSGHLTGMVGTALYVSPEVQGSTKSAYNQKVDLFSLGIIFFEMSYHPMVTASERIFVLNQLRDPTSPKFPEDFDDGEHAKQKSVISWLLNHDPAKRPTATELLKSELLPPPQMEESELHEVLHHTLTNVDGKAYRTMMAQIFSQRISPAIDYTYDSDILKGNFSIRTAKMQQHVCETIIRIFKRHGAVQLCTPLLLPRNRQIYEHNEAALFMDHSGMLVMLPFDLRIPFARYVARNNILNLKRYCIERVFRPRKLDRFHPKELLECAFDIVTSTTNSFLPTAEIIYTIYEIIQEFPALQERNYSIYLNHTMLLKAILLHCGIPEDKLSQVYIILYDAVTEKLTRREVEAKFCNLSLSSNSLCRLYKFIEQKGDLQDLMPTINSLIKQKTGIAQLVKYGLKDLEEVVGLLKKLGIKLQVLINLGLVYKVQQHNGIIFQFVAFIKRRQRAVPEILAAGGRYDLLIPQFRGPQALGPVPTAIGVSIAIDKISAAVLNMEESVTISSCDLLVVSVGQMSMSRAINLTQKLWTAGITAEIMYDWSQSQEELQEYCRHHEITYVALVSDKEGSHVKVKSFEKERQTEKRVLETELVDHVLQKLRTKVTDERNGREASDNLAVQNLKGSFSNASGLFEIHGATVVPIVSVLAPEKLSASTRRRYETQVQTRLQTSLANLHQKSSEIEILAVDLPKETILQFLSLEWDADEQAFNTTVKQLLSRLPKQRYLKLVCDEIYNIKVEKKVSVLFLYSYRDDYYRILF
Chain of intracellular GCN2 (phosphorylation of the GCN2 substrate eIF2α) (Q9P2K8 whole entry): as above

In test [1] (setting [2]), `Cc1cc(N2CC(C)NC(c3cn[nH]c3)C2C)nc(-c2cnc3cnc(C(F)(F)F)cn23)n1` (single isomer, unassigned) [IV-670, 3-(4-(2,5-Dimethyl-3-(1H-pyrazol-4-yl)piperazin-1-yl)-6-methylpyrimidin-2-yl)-6-(trifluoromethyl)imidazo[1,2-a]pyrazine] gave a pIC50 of 5.30 to 6.30. The pKi on GCN2 kinase (setting [3]) is > 8.00.
In the same order, the values of `CC1CN(c2ccnc(-c3cnc4cnc(C(F)(F)F)cn34)n2)C(C)C(c2c[nH]c(C(F)(F)F)n2)N1` (single isomer, unassigned) [IV-673, 3-(4-(2,5-Dimethyl-3-(2-(trifluoromethyl)-1H-imidazol-4-yl)piperazin-1-yl)pyrimidin-2-yl)-6-(trifluoromethyl)imidazo[1,2-a]pyrazine] are 5.30 to 6.30 and > 8.00.
The matching figures for `CC(C)(O)C1CC(c2cn[nH]c2)CN(c2ccnc(-c3cnc4cnc(C(F)(F)F)cn34)n2)C1` (single isomer, unassigned) [IV-682, 2-(5-(1H-Pyrazol-4-yl)-1-(2-(6-(trifluoromethyl)imidazo[1,2-a]pyrazin-3-yl)pyrimidin-4-yl)piperidin-3-yl)propan-2-ol]: 5.30 to 6.30 and 7.00 to 8.00.
In the same order, the values of `CC(C)(O)C1CC(c2cn[nH]c2)CN(c2ccnc(-c3cnc4cnc(C(F)(F)F)cn34)n2)C1` (single isomer, unassigned) [IV-683, 2-(5-(1H-Pyrazol-4-yl)-1-(2-(6-(trifluoromethyl)imidazo[1,2-a]pyrazin-3-yl)pyrimidin-4-yl)piperidin-3-yl)propan-2-ol] are 5.30 to 6.30 and 7.00 to 8.00.
For `CC(C)(O)C1CC(c2cn[nH]c2)CN(c2ccnc(-c3cnc4cnc(C(F)(F)F)cn34)n2)C1` (single isomer, unassigned) [IV-684, 2-(5-(1H-Pyrazol-4-yl)-1-(2-(6-(trifluoromethyl)imidazo[1,2-a]pyrazin-3-yl)pyrimidin-4-yl)piperidin-3-yl)propan-2-ol], in test [1] (setting [2]), the pIC50 is > 6.30. Also, the pKi at GCN2 kinase (setting [3]) is > 8.00.
Take `CC(C)(O)C1CC(c2cn[nH]c2)CN(c2ccnc(-c3cnc4cnc(C(F)(F)F)cn34)n2)C1` (single isomer, unassigned) [IV-685, 2-(5-(1H-Pyrazol-4-yl)-1-(2-(6-(trifluoromethyl)imidazo[1,2-a]pyrazin-3-yl)pyrimidin-4-yl)piperidin-3-yl)propan-2-ol]: the pIC50 in test [1] (setting [2]) is > 6.30. The pKi at GCN2 kinase (setting [3]) is > 8.00.
`C[C@H]1CN(c2ccnc(-c3cnc4sc(C(F)F)cn34)n2)C[C@@H](CNS(C)(=O)=O)C1(F)F` (stereo in doubt) [Compound V-1, N-((-1-(2-(2-(Difluoromethyl)imidazo[2,1-b]thiazol-5-yl)pyrimidin-4-yl)-4,4-difluoro-5-methylpiperidin-3-yl)methyl)methanesulfonamide]: the negative logarithm of the IC50 (pIC50) in test [1] (setting [4]) is 5.30 to 6.30. For the same compound, at GCN2 kinase (setting [5]), the pKi was > 8.00.
The matching figures for `FC(F)(F)c1cn2c(-c3nccc(N4CCO[C@H](c5cn[nH]c5)C4)n3)cnc2s1` (stereo in doubt) [Compound V-3, 2-(1H-Pyrazol-4-yl)-4-(2-(2-(trifluoromethyl)imidazo[2,1-b]thiazol-5-yl)pyrimidin-4-yl)morpholine]: > 6.30 and > 8.00.
The matching figures for `FC(F)(F)c1cn2c(-c3nccc(N4CCO[C@@H](c5cn[nH]c5)C4)n3)cnc2s1` (stereo in doubt) [Compound V-4, 2-(1H-pyrazol-4-yl)-4-(2-(2-(trifluoromethyl)imidazo[2,1-b]thiazol-5-yl)pyrimidin-4-yl)morpholine]: 5.30 to 6.30 and 7.00 to 8.00.
The matching figures for `FC(F)(F)c1cn2c(-c3nccc(N4CCC(c5cn[nH]c5)C4)n3)cnc2s1` (centres unmarked) [Compound V-7, 5-[4-[3-(1H-Pyrazol-4-yl)pyrrolidin-1-yl]pyrimidin-2-yl]-2-(trifluoromethyl)imidazo[2,1-b]thiazole]: 5.30 to 6.30 and 7.00 to 8.00.
For `NC(=O)[C@H]1CCCN(c2ccnc(-c3cnc4sc(C(F)(F)F)cn34)n2)C1` [Compound V-10, (3S)-1-[2-[2-(Trifluoromethyl)imidazo[2,1-b]thiazol-5-yl]pyrimidin-4-yl]piperidine-3-carboxamide], in test [1] (setting [4]), the pIC50 is > 6.30. Also, the pKi on GCN2 kinase (setting [5]) is > 8.00.
In the same order, the values of `CC1CN(c2ccnc(-c3cnc4sc(C(F)(F)F)cn34)n2)C(C)C(c2cn[nH]c2)N1` (centres unmarked) [Compound V-13, 5-[4-[2,5-Dimethyl-3-(1H-pyrazol-4-yl)piperazin-1-yl]pyrimidin-2-yl]-2-(trifluoromethyl)imidazo[2,1-b]thiazole] are > 6.30 and > 8.00.
The matching figures for `CC1CN(c2ccnc(-c3cnc4sc(C(F)F)cn34)n2)CC(CNS(C)(=O)=O)C1(F)F` (centres unmarked) [Compound V-14, N-[[1-[2-[2-(Difluoromethyl)imidazo[2,1-b]thiazol-5-yl]pyrimidin-4-yl]-4,4-difluoro-5-methyl-3-piperidyl]methyl]methanesulfonamide]: 5.30 to 6.30 and 7.00 to 8.00.
In the same order, the values of `FC(F)(F)c1cn2c(-c3nccc(N4CCOC(c5cn[nH]c5)C4)n3)cnc2s1` (centres unmarked) [Compound V-15, 2-(1H-Pyrazol-4-yl)-4-[2-[2-(trifluoromethyl)imidazo[2,1-b]thiazol-5-yl]pyrimidin-4-yl]morpholine] are > 6.30 and > 8.00.
For the compound `CC1CC(CS(C)(=N)=O)C(C)N(c2ccnc(-c3cnc4sc(C(F)(F)F)cn34)n2)C1` (centres unmarked) [Compound V-16, ((2,5-Dimethyl-1-(2-(2-(trifluoromethyl)imidazo[2,1-b]thiazol-5-yl)pyrimidin-4-yl)piperidin-3-yl)methyl)(imino)(methyl)-λ^6-sulfanone], the negative logarithm of the IC50 (pIC50) in test [1] (setting [4]) is < 5.30. The same compound gave a pKi at GCN2 kinase (setting [5]) of 6.00 to 7.00.
In the same order, the values of `CC1CC(CS(C)(=N)=O)C(C)N(c2ccnc(-c3cnc4sc(C(F)(F)F)cn34)n2)C1` (centres unmarked) [Compound V-17, ((2,5-Dimethyl-1-(2-(2-(trifluoromethyl)imidazo[2,1-b]thiazol-5-yl)pyrimidin-4-yl)piperidin-3-yl)methyl)(imino)(methyl)-λ^6-sulfanone] are 5.30 to 6.30 and 7.00 to 8.00.
The matching figures for `FC(F)(F)c1cn2c(-c3nccc(N4CCOC(c5cn[nH]c5)C4)n3)cnc2s1` (centres unmarked) [Compound V-20, 2-(1H-pyrazol-4-yl)-4-(2-(2-(trifluoromethyl)imidazo[2,1-b]thiazol-5-yl)pyrimidin-4-yl)morpholine]: > 6.30 and > 8.00.
`CC1CCC(CNS(C)(=O)=O)CN1c1cc(-c2cnc3ccc(C(F)F)nn23)ncn1` (centres unmarked) [II-3, N-((1-(6-(6-(Difluoromethyl)imidazo[1,2-b]pyridazin-3-yl)pyrimidin-4-yl)-6-methylpiperidin-3-yl)methyl)methanesulfonamide] gave a pIC50 in test [1] (setting [6]) of 5.30 to 6.30. Besides, at GCN2 kinase (setting [7]), the pKi is > 8.00.
Compound `FC(F)c1ccc2ncc(-c3cc(N4CCOC(c5cn[nH]c5)C4)ncn3)n2n1` (centres unmarked) [II-4, 4-(6-(6-(Difluoromethyl)imidazo[1,2-b]pyridazin-3-yl)pyrimidin-4-yl)-2-(1H-pyrazol-4-yl)morpholine] had a pIC50 in test [1] (setting [6]) of 5.30 to 6.30. For the same compound, the pKi at GCN2 kinase (setting [7]) is 6.00 to 8.00.
